Assay results reported in patent publication US7129218B2, “Use of rhamnolipids in wound healing, treatment and prevention of gum disease and periodontal regeneration” (Paradigm Biomedical, Inc., priority 1999, dated 2006).

Tests used:
burn wounds = assay: Burn wounds, 7% body surface, topical treatment (rats); type: in vivo, Sprague-Dawley rats; conditions: for mean value of collagen tissue: histopathology day 45; for mean value of collagen concentration relative to placebo group 1 D taken as 100%: day 45
Protocol: The wounding of animals was performed according to the Protocol for Animal Use and Care at the University of California-Davis (hereafter UC-Davis). The entire animal protocol required 70 Sprague-Dawley rats: 30 rats for incision wounds and 40 rats for burn wounds. Among them 36 rats were burned over 7% of their skin and 4 rats were burned over 15% of their skin. Incision wounds of whole skin and burn wounds were treated topically with 2 test doses of the pharmaceutical preparation of di-rhamnolipid BAC-3. […] D.E.A. Hamburg); 23.8 g Lanolinum (Producer I.O.I. Hamburg); 4.7 g Cholesterin (Producer: Solvay, Wiena, Austria); Water Number: 320); or b). 1%; 0.1% active rhamnolipid (BAC-3) with antiseptic (chlorhexidine hydrochloride-[…]). Eucerin with BAC-3 was administrated twice daily during healing. The same experiment had one control group without the treatment, and one control group which was treated with ointment+1% chlorhexidine hydrochloride. During the experiment, animal body weight and behavior was checked every third day, and photographs were taken periodically. Burn wounds. The consecutive burn wounds should ideally be identical in depth and extent. The standard method defines the size and location of the burn wound, the temperature gradient, duration of exposure and method of applying the burn. The wound surface areas tested were of two different sizes. One size to 7% of the body surface, which enables one to compare the rate of wound healing with different percentage of BAC-3 and the other size to 15% of the body surface, which is a sufficient size so that healing could not occur by contraction alone. On the other hand, the total wound surface area should not cause major systematic problems. The latter can be concluded from undisturbed weight gain of the animals. The standard animal burn was performed by techniques and device described by Walker. The burning devices were prepared using a model device ordered from U.S. Army Surgical Research Unit, Experimental Surgery, Army Medical Center, Fort Sam Houston, Tex. 78234. […] The surface of the skin was measured for every animal using Mech's formula: A=kW^2/3; A=surface area in cm^2; W=body weight in grams; k=10. Method of burning. Each animal was anesthetized with sodium pentobarbital administered i/p (5 mg/25 g). (Producer: Veterinary Laboratory Inc. Lenexa, Kans.). The hair over the dorsum was clipped with animal clippers. The animal was placed supine in the burning device and the extremities were tied; the malleable retractor was placed over the animal and secured snugly with plastic straps. The entire device was then picked up by the retractor ends with forceps and the exposed area was immersed in boiling water. Ten seconds of exposure was sufficient to produce a full-thickness burn. On removal from the water, the dorsum was quickly dried by rolling on a towel and the animal was released and individually caged. This procedure produced a uniform burn with sharp margins. On post burn days 7, 14 and 45, animals were sacrificed by overdose of sodium pentobarbital and skin specimens were taken for histopathology. Specimens included the wound bed as well as the healthy skin of the wound margins. The specimens were fixed, and two stainings were routinely performed: Hematoxylin-Eosin (H&E) for microscopic evaluation, Verhoeff's staining for a better visualization of the crust and the regenerating dermis, and the alpha smooth muscle acting to identify the myofibroblasts. Microscopic findings were interpreted by a veterinarian pathologist. During the microscopic and macroscopic observations, four wound healing parameters were evaluated: crust formation, re-epithelialization, formation of granulation tissue and inflammation. 36 rats were divided into 6 groups. Each group had six animals. After burning rats according to the above-described procedure, each rat was caged individually. […]

[1] = system: neonatal human keratinocyte cells; assay: Caspase detection in neonatal human keratinocyte cells in GM medium (with serum); type: cell-based
Protocol: The procedure for caspase detection in neonatal human keratinocyte cells in GM* medium (with serum) treated with BAC-3 using fluorescence spectroscopy
The same procedure as described for keratinocyte cells in KGM, but with presence of serum (GM). Passage #3 cells were grown in KGM medium for 7 days with one medium change. Plates were irradiated with UVB light for 66 seconds (792 J/m^2)
Cells, at 80% confluence, were administered BAC-3 in GM at 100 μg/ml, 50 μg/ml, 10 μg/ml and 1 μg/ml concentrations. Medium was replaced every two days over the period of 6 days. On day 3, positive apoptosis control was established by irradiating cells with 792 J/m^2 UVB light and incubating them with 1 μg/ml FAS antibody. BAC-3 treated and control cells were harvested and cell densities were adjusted to 1×10^6 cells per ml with FM. 300 μl cell aliquots were labeled with FAM-VAD-FMK, fluorescent-tagged, irreversible caspase inhibitor. Unlabelled inhibitor was washed away with buffer and 100 μl aliquots were read at 485 nm excitation and 535 nm emission with fluorescence detector. Error bars indicate standard deviations.

CCCCCCCC(CC(=O)O)OC(=O)CC(CCCCCCC)OC1OC(C)C(O)C(O)C1OC1OC(C)C(O)C(O)C1O [BAC-3, (α-L-rhamnopyranosyl-(1,2)-α-L-rhamnopyranosyl)-3-hyroxydecanoyl-3-hydroxydecanoic acid]
body weights among the treatment groups (burn wounds; 1% and 0.1% BAC-3 in eucerin vs vehicle, 45 days): no significant differences
rate of burn wound closure (decrease in wound size) vs vehicle alone (burn wounds; 7% burn, 0.1% BAC-3 in eucerin twice daily, no chlorhexidine, FIG. 1): significantly faster
burn wound size (distance across wound edges) vs vehicle alone (burn wounds; 7% burn, 0.1% BAC-3 in eucerin, days 14, 21 and 28, p<0.05 by ANOVA, FIG. 2): significantly smaller
crust formation, difference between groups (burn wounds; 7% burn, BAC-3 1% or 0.1% ointment with or without chlorhexidine vs placebo, 45 days): no significant differences
granulation tissue (burn wounds; 7% burn, group 1-A, 1% BAC-3 in ointment twice daily): prominently developed
re-epithelization in the middle part of the burn wounds (burn wounds; 7% burn, group 1-B, 0.1% BAC-3 in ointment twice daily): faster
mean value of collagen tissue (burn wounds; 7% burn, group 1 A, 1% BAC-3 ointment, no chlorhexidine): 8.48 mm^2
mean value of collagen tissue (burn wounds; 7% burn, group 1 B, 0.1% BAC-3 ointment, no chlorhexidine): 5.15 mm^2
granulation tissue (burn wounds; 7% burn, group 2-A, 1% BAC-3 in ointment plus 1% chlorhexidine hydrochloride twice daily): prominently developed
re-epithelization in the middle part of the burn wounds (burn wounds; 7% burn, group 2-B, 0.1% BAC-3 in ointment plus 1% chlorhexidine hydrochloride twice daily): faster
hair growth during the healing period (burn wounds; group 1-A, 1% BAC-3 in ointment, compared to the other groups): very prominent
mean value of collagen concentration relative to placebo group 1 D taken as 100% (burn wounds; group 1 A, 1% BAC-3): 131.26%
mean value of collagen concentration relative to placebo group 1 D taken as 100% (burn wounds; group 1 B, 0.1% BAC-3): 79.72%
optimal concentration for inhibiting apoptosis ([1]; keratinocytes in GM with serum, 6 days, tested 100, 50, 10, 1 and 0.5 μg/ml): 50 µg/mL
effect on apoptosis (caspase enzyme activity) ([1]; keratinocytes in GM, presence of serum): inhibited
